# Data reported in US20230233545A1, “TREATMENT OF ATRIAL DYSFUNCTION” (MyoKardia, Inc., priority 2020, published 2023).
# Tests used:
# [1] = system: dogs with microembolization-induced heart failure; assay: Echocardiography/haemodynamics in dogs with microembolization-induced heart failure; assay type: in vivo, beagle dogs; details: 2-3 mg/kg orally, 5 hours post-treatment
# Excerpt: Seven male beagle dogs underwent a modified serial coronary microembolization protocol to produce chronic LV dysfunction and HF (Geist et al., J Pharmacol Toxicol Methods (2019) 99:106595), as determined by both LV remodeling and decreases in LV ejection fraction (LVEF). A subset of animals (n=5) were also surgically implanted with a radio-telemetry transmitter (TL11M3-D70-PCTP; Data Sciences Int., MN, USA) to provide systemic arterial blood and LV pressures. The microembolization and instrumentation techniques employed have been previously validated (Hartman et al., JACC Basic Transl Sci. (2018) 3(5):625-38).
# The effects of Compound I (at 2-3 mg/kg oral tablet; n=14) on LV/LA function and geometry, as well as systemic/ventricular haemodynamics, were examined by echocardiography in conscious, lightly sedated animals (butorphanol 0.25-0.5 mg/kg intravenous) before dosing (i.e., baseline) as well at 5 hours post-treatment.
# In these experiments, 2D and 2D-guided M-mode echocardiographic (CX50; Philips Medical System, MA, USA) recordings of LV dimension, LA dimension (LAd) and aortic dimension (Aod), as well as LV volume estimates (Simpson's and Teichholz's methods), were obtained at end-systole/diastole in both short-axis (papillary-level) and/or apical/parasternal long-axis views. From these measurements, LV stroke volume (LVSV), cardiac output (CO), LV fractional shortening (LVFS), LV fractional area of shortening and LVEF, as well as the LAd/Aod ratio, were calculated. LV outflow tract (LVOT) blood velocity (via Doppler) was measured and the LVOT velocity−time integral (LVOT−VTI) calculated. In addition, maximal (end-systolic, LAmax) and minimal (end-diastolic, LAmin) LA volumes were measured using the bi-plane method; both LA emptying fraction (LAEF=100×[LAmax−LAmin]/LAmax) and LA functional index (LAFI=[LAEF×LVOT−VTI]/LAmax index) were calculated (Thomas et al., Eur J Echocardiogr (2008) 9(3):356-362). Diastolic trans-mitral peak flow velocities (E and A), mitral-annulus tissue velocities (e′, s′ and a′), and their ratios during early filling (E/e′), were recorded/used as indices of diastolic performance. In all cases, atrial and ventricular indexed volumes were calculated by normalizing to the estimated body surface area (0.101×[body weight in kg][…]), while reported data were derived by averaging at least three cardiac cycles. Finally, haemodynamic signals were digitally acquired (1000 Hz) and recorded continuously with a data acquisition/analysis system (IOX; EMKA Technologies). Heart rate (HR) and end-systolic and end-diastolic pressures, as well as the peak rates of pressure rise and decline (dP/dtmax and dP/dtmin, respectively), the contractility index (dP/dt/P at dP/dtmax), and the time constant of myocardial relaxation (tau1/2, time for 50% decay from dP/dtmin) were derived from the LV pressure signal. Systolic, diastolic and mean systemic blood pressures, as well as pulse pressures, were derived from the aortic pressure signal. Haemodynamic data were reported as the average over at least 1 minute (at steady state). In vivo data are presented as means (SD) in the text or as mean±SEM in the figures; mean differences between pre- and post-treatment values were evaluated via a two-tailed paired t-test with a significance level of 0.05 set a priori (GraphPad Prism, GraphPad Software Inc., CA, USA).
# [2] = Pharmacokinetics in healthy volunteers; details: human, in vivo
# [3] = Pharmacokinetics in patients with stable HFrEF; assay type: in vivo; details: human, oral
# Description: In the single-ascending dose trial, single fasting doses of Compound I 175-550 mg or placebo were evaluated in a crossover manner in 12 patients over two sequential cohorts (1 and 2), with intervals between singles doses ranging from 3 days (subsequently amended to 5) to 14 days. In Cohort 1, eight patients were enrolled and all received placebo and Compound I 175 mg and 350 mg (in random sequence and in a blinded fashion) during three periods, A-C. Six patients elected to continue into a fourth optional open label period D. Compound I doses administered in the open-label period included: 350 mg (n=1); 450 mg (divided into two administrations; n=1); 525 mg (n=2); and 550 mg (divided into two administrations; n=2). In Cohort 2, four patients were enrolled, and all received placebo and Compound I 400 mg and 500 mg in random sequence (both active 400 mg and 500 mg doses were divided into two administrations).
# For each treatment period, pre-dose assessments followed by administration of single dose were performed on Day 1 in the morning. The patient underwent serial pharmacokinetic (PK), pharmacodynamic (PD [trans-thoracic echocardiography or TTE]), ECG and safety laboratory assessments through Day 1 (until the evening) as well as on Day 2. Patients were discharged on Day 3 morning and returned to the clinic on Day 4 for a final PK assessment, and evaluation of adverse events (AEs). […]
structure (smiles),measurement,setting,value
"Cn1cc(S(=O)(=O)[C@@](C)(F)C2CCN(C(=O)Nc3ccon3)CC2)c(C(F)F)n1 [Compound I, (R)-4-(1-((3-(difluoromethyl)-1-methyl-1H-pyrazol-4-yl)sulfonyl)-1-fluoroethyl)-N-(isoxazol-3-yl)piperidine-1-carboxamide]",LVESD,"[1]; SD ±0.2, baseline 3.4 (±0.2), p<0.05",3.2 cm
same,E/A,"[1]; SD ±0.3, baseline 1.6 (±0.2)",1.6
same,LVEDD,"[1]; SD ±0.3, baseline 4.3 (±0.2)",4.3 cm
same,e′ (mitral annular velocity),"[1]; SD ±1.1, baseline 7.4 (±1.0)",7.3 cm/s
same,a′ (late peak mitral annular velocity),"[1]; SD ±1.3, baseline 4.0 (±1.2), p<0.05",5.4 cm/s
same,"CO (cardiac output, estimated)","[1]; SD ±1.6, baseline 3.4 (±0.9), p<0.05",4.1 L/min
same,LVFS,"[1]; SD ±3.6, baseline 19.6 (±2.7), p<0.05",25.6%
same,LVGCS (LV global circumferential strain),"[1]; SD ±4.4, baseline −13.5 (±4.4), p<0.05",−17.3%
same,LVEF,"[1]; SD ±6, baseline 41 (±5), p<0.05",51%
same,LAFI (left atrial functional index),"[1]; SD ±6.5, baseline 7.7 (±3.3), p<0.05",15.2
same,LAEF (left atrial emptying fraction),"[1]; SD ±6.9, baseline 20.4 (±4.4), p<0.05",31.1%
same,"A (late peak wave velocity, mitral inflow)","[1]; SD ±8, baseline 41 (±6)",46 cm/s
same,LAmin Vol. index (LAminVi),"[1]; SD ±9.0, baseline 21.2 (±8.3), p<0.05",17.9 mL/m^2
same,LAmax Vol. index,"[1]; SD ±9.7, baseline 26.7 (±9.7), p<0.05",25.1 mL/m^2
same,DBP (diastolic blood pressure),"[1]; SD ±13, baseline 66 (±10)",72 mmHg
same,E (early trans-mitral peak wave velocity),"[1]; SD ±40, baseline 71 (±12)",74 cm/s
same,SET (systolic ejection time),"[1]; baseline 178 (±24), p<0.05",200 ms
same,LVSV (left ventricular stroke volume),"[1]; mean, SD ±10.7, baseline 33.0 (±5.9), p<0.05",43.6 mL
same,E/e′,"[1]; n/u, SD ±1.2, baseline 9.7 (±1.9)",10.2
same,LVEDP (LV end-diastolic pressure),"[1]; telemetry subset, SD ±4, baseline 18 (±2)",16 mmHg
same,SBP (systolic blood pressure),"[1]; telemetry subset, SD ±10, baseline 110 (±10)",119 mmHg
same,HR (heart rate),"[1]; telemetry subset, SD ±50, baseline 108 (±45), p<0.05",99 bpm
same,Tmax,[2],4 to 6 h
same,half-life,[2],~15 h
same,half-life,"[3]; in vivo, patients that received Compound I as part of Cohort 1 (single doses)",20 to 25 h
same,concentration at 7 days,"[3]; plasma, 50 mg BID, with food, read-out: steady-state concentration",2000 to 3500 ng/mL
